Experimental data reported in ChEMBL document CHEMBL5120927, “LEGO-Lipophosphonoxins: A Novel Approach in Designing Membrane Targeting Antimicrobials” (J Med Chem, 2022).

Assays:
[1] = system: Enterococcus faecalis; assay: Antibacterial activity against Enterococcus faecalis ATCC 29212 = CCM 4224 assessed as inhibition of bacterial growth incubated for 24 hrs by microdilution assay; assay type: functional
[2] = system: Escherichia coli; assay: Antibacterial activity against Escherichia coli ATCC 25922 = CCM 3954 assessed as inhibition of bacterial growth incubated for 24 hrs by microdilution assay; assay type: functional
[3] = system: Pseudomonas aeruginosa; assay: Antibacterial activity against Pseudomonas aeruginosa ATCC 27853 = CCM 3955 assessed as inhibition of bacterial growth incubated for 24 hrs by microdilution assay; assay type: functional
[4] = Gradient chromatographic hydrophobicity index of the compound at pH 3.7 by HPLC analysis; assay type: ADME
[5] = system: Staphylococcus epidermidis; assay: Antibacterial activity against Staphylococcus epidermidis CCM 7221 assessed as inhibition of bacterial growth incubated for 24 hrs by microdilution assay; assay type: functional
[6] = system: Staphylococcus aureus; assay: Antibacterial activity against methicillin resistant Staphylococcus aureus 4591/A assessed as reduction in microbial growth incubated for 24 hrs by microdilution assay; assay type: functional
[7] = system: Escherichia coli; assay: Antibacterial activity against multidrug-resistant Escherichia coli CE5556 expressing CTX-M-15 assessed as reduction in microbial growth incubated for 24 hrs by microdilution assay; assay type: functional
[8] = system: Enterococcus faecium; assay: Antibacterial activity against vancomycin resistant Enterococcus faecium 419/ANA assessed as reduction in microbial growth incubated for 24 hrs by microdilution assay; assay type: functional
[9] = system: Staphylococcus aureus; assay: Antibacterial activity against Staphylococcus aureus ATCC 29213 = CCM 4223 assessed as inhibition of bacterial growth incubated for 24 hrs by microdilution assay; assay type: functional
[10] = system: Staphylococcus aureus; assay: Antibacterial activity against Staphylococcus aureus ATCC 29213 = CCM 4223 assessed as inhibition of bacterial growth incubated for 24 hrs in presence of BSA by microdilution assay; assay type: functional
[11] = system: Escherichia coli; assay: Antibacterial activity against Escherichia coli ATCC 25922 = CCM 3954 assessed as inhibition of bacterial growth incubated for 24 hrs in presence of BSA by microdilution assay; assay type: functional
[12] = Hemolytic activity in human RBC assessed as haemoglobin release measured after 3 hr; assay type: toxicity, cell-based, Erythrocyte; settings: red blood cells (erythrocytes)
[13] = system: Pseudomonas aeruginosa; assay: Antibacterial activity against multidrug-resistant Pseudomonas aeruginosa assessed as reduction in microbial growth incubated for 24 hrs by microdilution assay; assay type: functional

## CCCCCCCCOP(=O)(CCN(CCCN)CCCN)OCCCCCCCCCCCCOP(=O)(CCN(CCCN)CCCN)OCCCCCCCC.Cl.Cl.Cl.Cl.Cl.Cl (stereo not given)
[1]
  MIC: 1 µg/mL
[2]
  MIC: 1 µg/mL
[3]
  MIC: 2 µg/mL
[4]
  CHI: 432
[5]
  MIC: 0.5 µg/mL
[6]
  MIC: 1 µg/mL
[7]
  MIC: 1 µg/mL
[8]
  MIC: 1 µg/mL

## CCCCCCCOP(=O)(CCN(CCCN)CCCN)OCCCCOP(=O)(CCN(CCCN)CCCN)OCCCCCCC.Cl.Cl.Cl.Cl.Cl.Cl (stereo not given)
[1]
  MIC: 64 µg/mL
[9]
  MIC: 4 µg/mL
[10]
  MIC: 8 µg/mL
[2]
  MIC: 8 µg/mL
[11]
  MIC: 32 µg/mL
[3]
  MIC: 128 µg/mL
[12]
  HC50 at 3 h: > 200 µg/mL
[4]
  CHI: 30.7
[5]
  MIC: 2 µg/mL
[6]
  MIC: 4 µg/mL
[7]
  MIC: 64 µg/mL
[8]
  MIC: > 128 µg/mL
[13]
  MIC: 128 µg/mL

## CCCCCCOP(=O)(CCN(CCCN)CCCN)OCCCCCCCCCCCCCCOP(=O)(CCN(CCCN)CCCN)OCCCCCC.Cl.Cl.Cl.Cl.Cl.Cl (stereo not given)
[1]
  MIC: 1 µg/mL
[2]
  MIC: 1 µg/mL
[3]
  MIC: 2 µg/mL
[4]
  CHI: 40.6
[5]
  MIC: 0.5 µg/mL
[6]
  MIC: 1 µg/mL
[7]
  MIC: 1 µg/mL
[8]
  MIC: 2 µg/mL

## CCCCCCCCCOP(=O)(CCN(CCCN)CCCN)OCCOCc1ccc(OC)cc1.Cl.Cl.Cl (stereo not given)
[1]
  MIC: 16 µg/mL
[9]
  MIC: 16 µg/mL
[10]
  MIC: 128 µg/mL
[2]
  MIC: 32 µg/mL
[11]
  MIC: > 133 µg/mL
[3]
  MIC: 16 µg/mL
[12]
  HC50 at 3 h: 55 µg/mL

## CCCCCCCCCOP(=O)(CCN(CCCN)CCCN)OCCc1ccc([N+](=O)[O-])cc1.Cl.Cl.Cl (stereo not given)
[1]
  MIC: 16 µg/mL
[9]
  MIC: 8 µg/mL
[10]
  MIC: 64 µg/mL
[2]
  MIC: 16 µg/mL
[11]
  MIC: 128 µg/mL
[3]
  MIC: 8 µg/mL
[12]
  HC50 at 3 h: 50 µg/mL

## CCCCCCCCOP(=O)(CCN(CCCN)CCCN)OCCOCc1ccccc1.Cl.Cl.Cl (stereo not given)
[1]
  MIC: 128 µg/mL
[9]
  MIC: 128 µg/mL
[10]
  MIC: > 128 µg/mL
[2]
  MIC: > 128 µg/mL
[11]
  MIC: > 132 µg/mL
[3]
  MIC: > 128 µg/mL
[12]
  HC50 at 3 h: > 100 µg/mL

## CCCCCCCCCOP(=O)(CCN(CCCN)CCCN)OCCc1cccc2ccccc12.Cl.Cl.Cl (stereo not given)
[1]
  MIC: 2 µg/mL
[9]
  MIC: 2 µg/mL
[10]
  MIC: 64 µg/mL
[2]
  MIC: 4 µg/mL
[11]
  MIC: 64 µg/mL
[3]
  MIC: 4 µg/mL
[12]
  HC50 at 3 h: 12.8 µg/mL

## CC(C)COP(=O)(CCN(CCCN)CCCN)OCCCCCCCCCCCCCCOP(=O)(CCN(CCCN)CCCN)OCC(C)C.Cl.Cl.Cl.Cl.Cl.Cl (stereo not given)
[1]
  MIC: 4 µg/mL
[2]
  MIC: 16 µg/mL
[3]
  MIC: 4 µg/mL
[4]
  CHI: 27.3
[5]
  MIC: 0.5 µg/mL
[6]
  MIC: 4 µg/mL
[7]
  MIC: 16 µg/mL
[8]
  MIC: 16 µg/mL

## CCCCCCCCCCCCOP(=O)(CCN(CCCN)CCCN)OCCCCCCCCCCCC.Cl.Cl.Cl
[1]
  MIC: 25 µg/mL
[9]
  MIC: 100 µg/mL
[2]
  MIC: 100 µg/mL
[3]
  MIC: 100 µg/mL
[12]
  HC50 at 3 h: 11.3 µg/mL

## CCCCOP(=O)(CCN(CCCN)CCCN)OCCCCCCCCCCCCCCOP(=O)(CCN(CCCN)CCCN)OCCCC.Cl.Cl.Cl.Cl.Cl.Cl (stereo not given)
[1]
  MIC: 4 µg/mL
[2]
  MIC: 16 µg/mL
[3]
  MIC: 4 µg/mL
[4]
  CHI: 35.2
[5]
  MIC: 0.5 µg/mL
[6]
  MIC: 2 µg/mL
[7]
  MIC: 32 µg/mL
[8]
  MIC: 16 µg/mL

## CCCCCCCCCCCCOP(=O)(CCN(CCCN)CCCN)OCCc1c[nH]c2ccccc12.Cl.Cl.Cl.Cl (stereo not given)
[1]
  MIC: 4 µg/mL
[9]
  MIC: 2 µg/mL
[2]
  MIC: 4 µg/mL
[3]
  MIC: 8 µg/mL
[12]
  HC50 at 3 h: 12.1 µg/mL

## CCCCCCCCCOP(=O)(CCN(CCCN)CCCN)OCCc1ccc(Cl)cc1.Cl.Cl.Cl (stereo not given)
[1]
  MIC: 2 µg/mL
[9]
  MIC: 2 µg/mL
[10]
  MIC: 64 µg/mL
[2]
  MIC: 2 µg/mL
[11]
  MIC: 64 µg/mL
[3]
  MIC: 8 µg/mL
[12]
  HC50 at 3 h: 17.3 µg/mL

## CCCCCCOP(=O)(CCN(CCCN)CCCN)OCCCCCCCCCCCCOP(=O)(CCN(CCCN)CCCN)OCCCCCC.Cl.Cl.Cl.Cl.Cl.Cl (stereo not given)
[1]
  MIC: 0.5 µg/mL
[2]
  MIC: 1 µg/mL
[3]
  MIC: 2 µg/mL
[4]
  CHI: 37.7
[5]
  MIC: 0.125 µg/mL
[6]
  MIC: 0.5 µg/mL
[7]
  MIC: 2 µg/mL
[8]
  MIC: 2 µg/mL

## CCCCCCCCCOP(=O)(CCN(CCCN)CCCN)OCCOCc1ccccc1.Cl.Cl.Cl (stereo not given)
[1]
  MIC: 32 µg/mL
[9]
  MIC: 32 µg/mL
[10]
  MIC: > 128 µg/mL
[2]
  MIC: 64 µg/mL
[11]
  MIC: > 128 µg/mL
[3]
  MIC: 64 µg/mL
[12]
  HC50 at 3 h: 79.8 µg/mL

## CCCCCOP(=O)(CCN(CCCN)CCCN)OCCCCCCCCCCCCOP(=O)(CCN(CCCN)CCCN)OCCCCC.Cl.Cl.Cl.Cl.Cl.Cl (stereo not given)
[1]
  MIC: 2 µg/mL
[10]
  MIC: 8 µg/mL
[2]
  MIC: 16 µg/mL
[11]
  MIC: 16 µg/mL
[3]
  MIC: 4 µg/mL
[12]
  HC50 at 3 h: 444 µg/mL
[4]
  CHI: 34.7
[5]
  MIC: 0.5 µg/mL
[6]
  MIC: 1 µg/mL
[7]
  MIC: 32 µg/mL
[8]
  MIC: 16 µg/mL
[13]
  MIC: 4 µg/mL

## CCCCCCCCCCCCCCCCOP(=O)(CCN(CCCN)CCCN)OCC.Cl.Cl.Cl (stereo not given)
[1]
  MIC: 2 µg/mL
[9]
  MIC: 2 µg/mL
[10]
  MIC: 128 µg/mL
[2]
  MIC: 2 µg/mL
[11]
  MIC: > 130 µg/mL
[3]
  MIC: 4 µg/mL
[12]
  HC50 at 3 h: 9.4 µg/mL

## CCCCCCCCCCCCCCCOP(=O)(CCN(CCCN)CCCN)OCC.Cl.Cl.Cl (stereo not given)
[1]
  MIC: 2 µg/mL
[9]
  MIC: 2 µg/mL
[10]
  MIC: > 128 µg/mL
[2]
  MIC: 1 µg/mL
[11]
  MIC: > 129 µg/mL
[3]
  MIC: 2 µg/mL
[12]
  HC50 at 3 h: 6.9 µg/mL

## CCCCCOP(=O)(CCN(CCCN)CCCN)OCCCCCCCCCCCCCCOP(=O)(CCN(CCCN)CCCN)OCCCCC.Cl.Cl.Cl.Cl.Cl.Cl (stereo not given)
[1]
  MIC: 1 µg/mL
[2]
  MIC: 2 µg/mL
[3]
  MIC: 4 µg/mL
[4]
  CHI: 38.1
[5]
  MIC: 0.5 µg/mL
[6]
  MIC: 1 µg/mL
[7]
  MIC: 2 µg/mL
[8]
  MIC: 2 µg/mL

## CCCCCCOP(=O)(CCN(CCCN)CCCN)OCCc1cccc2ccccc12.Cl.Cl.Cl (stereo not given)
[1]
  MIC: 64 µg/mL
[9]
  MIC: 64 µg/mL
[10]
  MIC: > 128 µg/mL
[2]
  MIC: > 128 µg/mL
[11]
  MIC: > 131 µg/mL
[3]
  MIC: 64 µg/mL
[12]
  HC50 at 3 h: > 100 µg/mL

## CCCCCCCCCOP(=O)(CCN(CCCN)CCCN)OCCc1ccc(N)cc1.Cl.Cl.Cl.Cl (stereo not given)
[1]
  MIC: 128 µg/mL
[9]
  MIC: 64 µg/mL
[10]
  MIC: > 128 µg/mL
[2]
  MIC: 128 µg/mL
[11]
  MIC: > 128 µg/mL
[3]
  MIC: 128 µg/mL
[12]
  HC50 at 3 h: > 100 µg/mL

## CCCCCCCCCCCCCCOP(=O)(CCN(CCCN)CCCN)OCC.Cl.Cl.Cl (stereo not given)
[1]
  MIC: 4 µg/mL
[9]
  MIC: 4 µg/mL
[10]
  MIC: > 128 µg/mL
[2]
  MIC: 4 µg/mL
[11]
  MIC: > 128 µg/mL
[3]
  MIC: 4 µg/mL
[12]
  HC50 at 3 h: 12.2 µg/mL

## CCCCCCCCCOP(=O)(CCN(CCCN)CCCN)OCCc1ccccc1.Cl.Cl.Cl (stereo not given)
[1]
  MIC: 32 µg/mL
[9]
  MIC: 16 µg/mL
[2]
  MIC: 32 µg/mL
[3]
  MIC: 16 µg/mL
[12]
  HC50 at 3 h: 58.7 µg/mL

## CCCCCCCCCCCCCCOP(=O)(CCN(CCCN)CCCN)OCCc1c[nH]c2ccccc12.Cl.Cl.Cl.Cl (stereo not given)
[1]
  MIC: 4 µg/mL
[9]
  MIC: 2 µg/mL
[2]
  MIC: 2 µg/mL
[3]
  MIC: 2 µg/mL
[12]
  HC50 at 3 h: 12.4 µg/mL
